Assay results taken from patent US20120251525A1, “METHOD OF UTILIZING AZELAIC ACID ESTERS TO MODULATE COMM[…] BY […]” (priority 2009, published 2012).

How the values were obtained:
EpiDerm tissues = experiment: MatTek EpiDerm in vitro human skin model, croton oil irritant, multiplex immunoassay of markers; format: cell-based; conditions: for tissue levels of IL-17 / tissue levels of MIP-1-alpha: relative to control (croton oil only)
[1] = system: human cutaneous malignant melanoma; conditions: Zaffaroni et al. 1990; cited from earlier work
human choroidal melanoma = conditions: Breathnach et al. 1989; cited from earlier work
[2] = system: human squamous cell carcinoma; conditions: Paetzold et al. 1989; cited from earlier work
[3] = system: various fibroblastic lines; conditions: Geier et al. 1986; cited from earlier work
[4] = clinical practice; cited from earlier work
[5] = growth medium, croton oil, 24 hours, relative to control
[6] = tissue, croton oil, 24 hours, relative to control

In the case of `COC(=O)CCCCCCCC(=O)OC` [DMA, dimethylazelate], the “IL-1-beta medium marker level” value (EpiDerm tissues; [5]) is reported as “increased”, the “IL-4 medium marker level” value (EpiDerm tissues; [5]) is reported as “increases” and the “IL-10 medium marker level” value (EpiDerm tissues; [5]) is reported as “increases”. The “TNF-alpha medium marker level” value (EpiDerm tissues; [5]) was “increased”, the IL-1-beta tissue level (EpiDerm tissues; [6]) was “decreased relative to control” and the IL-4 tissue level (EpiDerm tissues; [6]) was “decreased relative to control”. The IL-10 tissue level (EpiDerm tissues; [6]) was “decreased relative to control” and the TNF-alpha tissue level (EpiDerm tissues; [6]) was “decreased relative to control”.

For `O=C(O)CCCCCCCC(=O)O` [azelaic acid], the “tissue levels of IL-17” value (EpiDerm tissues; tissue) is given as “significantly lower than control”, the “tissue levels of MIP-1-alpha” value (EpiDerm tissues; tissue) is given as “elevated relative to control” and the “antiproliferative and cytotoxic action” value [1] is given as “antiproliferative and cytotoxic action”. For the same molecule, the “antiproliferative and cytotoxic action” value (human choroidal melanoma) was “antiproliferative and cytotoxic action”, the “antiproliferative and cytotoxic action” value [2] was “antiproliferative and cytotoxic action” and the “antiproliferative and cytotoxic action” value [3] was “antiproliferative and cytotoxic action”. The “major dose limiting toxicity” value [4] was “skin irritation”.

With `CCOC(=O)CCCCCCCC(=O)OCC` [DEA, diethyl azelate] the IL-8 modulation (EpiDerm tissues; matrix not stated) was “suppressing”, the IL-17 modulation (EpiDerm tissues; matrix not stated) was “suppressing” and the IL-23 modulation (EpiDerm tissues; matrix not stated) was “suppressing”. The “tissue levels of IL-17” value (EpiDerm tissues; tissue) was “exceedingly high relative to control” and the “tissue levels of MIP-1-alpha” value (EpiDerm tissues; tissue) was “elevated relative to control”.
